# How the values were obtained:
# resting platelets = assay: Platelet aggregation induced by peptide in resting washed platelets (activation); type: cell-based, human (healthy volunteers); details: for Activation: platelet aggregation in resting platelets after 6 minutes incubation with peptide, pal-peptides 20 μM, tat-peptides 50 μM, optical density, aggregometer, mean, n>=3; for Activation / Activation, donor 20 08 13 / Activation, donor 14 06 13 / Activation, 5μM / Activation, 20μM: unit assumed; for Aggregation before TRAP activation, donor a: replicate donor a; for Aggregation before TRAP activation, donor a / Aggregation before TRAP activation, donor b / Aggregation before TRAP activation, donor c / Aggregation before TRAP activation, donor d / Aggregation before TRAP activation, donor e: pal 20 μM, tat 50 μM; for Aggregation before TRAP activation, donor b: replicate donor b; for Aggregation before TRAP activation, donor c: replicate donor c; for Aggregation before TRAP activation, donor d: replicate donor d; for Aggregation before TRAP activation, donor e: replicate donor e; for Activation, donor 20 08 13: replicate 20_08_13; for Activation, donor 20 08 13 / Activation, donor 22_08_13_DONOR1 / Activation, donor 22_08_13_DONOR2 / Activation, donor 14 06 13 / Activation, donor 18_06_13 / Activation, donor 20_06_13: SDC4 peptides and controls, 20 μM; for Activation, donor 22_08_13_DONOR1: replicate 22_08_13_DONOR1; for Activation, donor 22_08_13_DONOR2: replicate 22_08_13_DONOR2; for Activation, donor 14 06 13: replicate 14_06_13; for Activation, donor 18_06_13: replicate 18_06_13; for Activation, donor 18_06_13 / Activation, donor 20_06_13: in % (unit assumed); for Activation, donor 20_06_13: replicate 20_06_13; for Activation, 5μM / Activation, 20μM: S3 Table, n=3; for Activation, 5μM: peptide 5 μM; for Activation, 20μM: peptide 20 μM
# Procedure: (§1) Blood was drawn from healthy volunteers into a syringe containing a final volume of 15% Acid Citrate Dextrose (ACD). The blood/ACD mixture was then aliquoted into 15 ml Cellstar tubes, at volumes of 5ml per tube, and centrifuged at 150 rcf for 10 minutes to obtain platelet rich plasma (PRP). PRP was then transferred to a 50ml tube using a pipette. The pH was then adjusted to 6.5. Prostaglandin (PGE1) was then added with a final concentration of 1μM. The PRP was then centrifuged at 750 rcf. After centrifugation the platelet poor plasma (PPP) was discarded and the pellet was resuspended in buffer A (6 mM dextrose, 130 mM NaCl, 9 mM NaHCO3, 10 mM sodium citrate, 10 mM Tris base, 3 mM KCl, 0.81 mM KH2PO4 and 0.9 mM MgCl26H2O, pH 7.4). A platelet concentration of 3x10^5/μl or 1x10^6/μl was obtained by dilution depending on the experiment in which they were used. Platelets were left to rest for 45 minutes and supplemented with 1.8mM calcium chloride prior to use.
# (§2) A platelet concentration of 3x10^5 /μl was used when performing standard aggregations and a concentration of 1x10^6 /μl was used for sample preparation for western blot analysis. The extent of platelet aggregation was measured by quantifying the optical density of the samples using the Bio-Data PAP-8 aggregometer (platelet aggregation profiler, Horsham, PA, USA). A temperature of 37°C was maintained and samples were stirred using magnets spinning at 1100 rpm. 200 μl of washed platelets was added to each aggregation tube. Different volumes of buffer, peptide and TRAP were added to achieve the desired concentrations. Peptide/buffer was added to each well after two minutes. TRAP, with a final concentration depending on the experiment, was added 6 minutes later and data was collected for an additional 7 minutes.
# TRAP-activated platelets = assay: Inhibition of TRAP-induced platelet aggregation after pre-incubation with peptide; type: cell-based, human (healthy volunteers); details: for Aggregation after TRAP activation, donor a: replicate donor a; for Aggregation after TRAP activation, donor a / Aggregation after TRAP activation, donor b / Aggregation after TRAP activation, donor c / Aggregation after TRAP activation, donor d / Aggregation after TRAP activation, donor e: pal 20 μM, tat 50 μM; for Aggregation after TRAP activation, donor b: replicate donor b; for Aggregation after TRAP activation, donor c: replicate donor c; for Aggregation after TRAP activation, donor d: replicate donor d; for Aggregation after TRAP activation, donor e: replicate donor e; for Summary of effects of SDC4-derived palmitylated peptides and scrambled controls, 20μM: S2 Table B / S2 Fig, activation of resting platelets and inhibition of aggregation induced by 4 μM TRAP, in words; for Inhibition, donor 20_08_13: replicate 20_08_13; for Inhibition, donor 14_06_13: replicate 14_06_13; for Inhibition, donor 18_06_13: replicate 18_06_13; for Inhibition, donor 20_06_13: replicate 20_06_13; for Aggregation (inhibition effects of syndecan-derived peptides): S2 Table A, n=6
# Procedure: as §1, §2
# [1] = platelet aggregation induced by 4 μM TRAP in platelets pre-incubated with peptide (low value = inhibition), pal-peptides 20 μM, tat-peptides 50 μM, mean, n>=3
# [2] = replicate 22_08_13_DONOR1, peptide 20 μM, TRAP 4 μM
# [3] = replicate 22_08_13_DONOR2, peptide 20 μM, TRAP 4 μM
# [4] = S3 Table, peptide 5 μM, aggregation after TRAP, n=3
# [5] = S3 Table, peptide 20 μM, aggregation after TRAP, n=3
Substance,"Activation, donor 20 08 13 (resting platelets) [%]","Activation, donor 22_08_13_DONOR1 (resting platelets)","Activation, donor 22_08_13_DONOR2 (resting platelets)","Summary of effects of SDC4-derived palmitylated peptides and scrambled controls, 20μM (TRAP-activated platelets)","Inhibition, donor 20_08_13 (TRAP-activated platelets; peptide 20 μM, TRAP 4 μM)",Platelet aggregation remaining after TRAP (low = inhibition) (TRAP-activated platelets; [2]),Platelet aggregation remaining after TRAP (low = inhibition) (TRAP-activated platelets; [3]),"Activation, donor 14 06 13 (resting platelets) [%]","Activation, donor 18_06_13 (resting platelets)","Activation, donor 20_06_13 (resting platelets)","Inhibition, donor 14_06_13 (TRAP-activated platelets; peptide 20 μM, TRAP 4 μM)","Inhibition, donor 18_06_13 (TRAP-activated platelets; peptide 20 μM, TRAP 4 μM)","Inhibition, donor 20_06_13 (TRAP-activated platelets; peptide 20 μM, TRAP 4 μM)","Activation, 5μM (resting platelets) [%]","Activation, 20μM (resting platelets) [%]",Platelet aggregation remaining after TRAP (low = inhibition) (TRAP-activated platelets; [4]),Platelet aggregation remaining after TRAP (low = inhibition) (TRAP-activated platelets; [5]),also measured
"GIESMSQDTEVRSRVVGGS-tat [PTPN1-tat, PTPN1 peptide with C-terminal tat]",,,,,,,,,,,,,,,,,,"Activation (resting platelets): 3%; Aggregation before TRAP activation, donor a (resting platelets): 3; Aggregation before TRAP activation, donor b (resting platelets): 4; Aggregation before TRAP activation, donor c (resting platelets): 5; Aggregation before TRAP activation, donor d (resting platelets): 4; Aggregation before TRAP activation, donor e (resting platelets): 3; Platelet aggregation remaining after TRAP (low = inhibition) (TRAP-activated platelets; [1]): 77; Aggregation after TRAP activation, donor a (TRAP-activated platelets; TRAP 4 μM): 73; Aggregation after TRAP activation, donor b (TRAP-activated platelets; TRAP 4 μM): 76; Aggregation after TRAP activation, donor c (TRAP-activated platelets; TRAP 4 μM): 83; Aggregation after TRAP activation, donor d (TRAP-activated platelets; TRAP 4 μM): 75; Aggregation after TRAP activation, donor e (TRAP-activated platelets; TRAP 4 μM): 79"
"IGLPKKKYK [pal-SDC4_middle Control 2, scrambled control of pal-SDC4_middle, reference compound]",12,17,12,Inhibitor and mild activator,40,19,46,,,,,,,,,,,
"KIKGPKLKY [pal-SDC4_middle Control 1, scrambled control of pal-SDC4_middle, reference compound]",5,6,5,Inhibitor and mild activator,8,5,10,4,4,0,8,9,2,,,,,
"KLSQLTSLLSSIE-tat [INPP5D-tat, INPP5D peptide with C-terminal tat]",,,,,,,,,,,,,,,,,,"Activation (resting platelets): 4%; Aggregation before TRAP activation, donor a (resting platelets): 4; Aggregation before TRAP activation, donor b (resting platelets): 8; Aggregation before TRAP activation, donor c (resting platelets): 2; Aggregation before TRAP activation, donor d (resting platelets): 3; Aggregation before TRAP activation, donor e (resting platelets): 4; Platelet aggregation remaining after TRAP (low = inhibition) (TRAP-activated platelets; [1]): 74; Aggregation after TRAP activation, donor a (TRAP-activated platelets; TRAP 4 μM): 70; Aggregation after TRAP activation, donor b (TRAP-activated platelets; TRAP 4 μM): 77; Aggregation after TRAP activation, donor c (TRAP-activated platelets; TRAP 4 μM): 76; Aggregation after TRAP activation, donor d (TRAP-activated platelets; TRAP 4 μM): 75; Aggregation after TRAP activation, donor e (TRAP-activated platelets; TRAP 4 μM): 73"
"MGYRKEDKDKS [pal-SDC4_JM Control 2, scrambled control of pal-SDC4_JM, reference compound]",2,1,2,Inhibitor,4,3,14,,,,,,,,,,,
"NSDTPPRPDRLPL-tat [PTPN12-tat, PTPN12 peptide with C-terminal tat]",,,,,,,,,,,,,,,,,,"Activation (resting platelets): 3%; Aggregation before TRAP activation, donor a (resting platelets): 3; Aggregation before TRAP activation, donor b (resting platelets): 4; Aggregation before TRAP activation, donor c (resting platelets): 4; Aggregation before TRAP activation, donor d (resting platelets): 4; Aggregation before TRAP activation, donor e (resting platelets): 3; Platelet aggregation remaining after TRAP (low = inhibition) (TRAP-activated platelets; [1]): 75; Aggregation after TRAP activation, donor a (TRAP-activated platelets; TRAP 4 μM): 73; Aggregation after TRAP activation, donor b (TRAP-activated platelets; TRAP 4 μM): 76; Aggregation after TRAP activation, donor c (TRAP-activated platelets; TRAP 4 μM): 76; Aggregation after TRAP activation, donor d (TRAP-activated platelets; TRAP 4 μM): 75; Aggregation after TRAP activation, donor e (TRAP-activated platelets; TRAP 4 μM): 78"
"NTYAFKAKEP [pal-KK-SDC4_tail Control 1, scrambled control of pal-KK-SDC4_tail, reference compound]",3,1,3,No effect,70,76,74,,,,,,,,,,,
"Pal-KKAPTNEFYA [Pal-KK-SDC4-tail, palmitylated, slightly extended SDC4 tail peptide …]",3,1,1,Inhibitor,4,2,12,2,-1,2,65,64,71,2,1,63,36,"Aggregation after TRAP, peptide alone 1x (A 1x / B 1x) (TRAP-activated platelets; TRAP 2 μM after 6 minutes pre-incubation, 4 μM pal-peptides, 10 μM tat-peptides, mean n = 3): 64.67; Aggregation after TRAP, peptide alone 2x (A 2x / B 2x) (TRAP-activated platelets; TRAP 2 μM after 6 minutes pre-incubation, double concentration of 4 μM (pal) / 10 μM (tat), mean n = 3): 3"
"Pal-LGKKPIYKK-APTNEFYA [pal-SDC4-middle U SDC4-tail, palmitylated chimeric peptide of SDC4 middle and tail regions]",4,1,4,,6,2,6,3,3,-2,5,5,7,3,2,63,5,"Aggregation (inhibition effects of syndecan-derived peptides) (TRAP-activated platelets; peptide 20 μM, TRAP 4 μM, mean): 5"
"Pal-RMKKKDEGSYD-APTNEFYA [pal-SDC4-JM U SDC4-tail, palmitylated chimeric peptide of SDC4 juxtamembrane and tail regions]",3,1,2,,70,62,68,3,2,2,75,62,81,2,2,63,69,"Aggregation (inhibition effects of syndecan-derived peptides) (TRAP-activated platelets; peptide 20 μM, TRAP 4 μM, mean): 69"
"Pal-RMKKKDEGSYD-LGKKPIYKK [pal-SDC4-JM U SDC4-middle, palmitylated chimeric peptide of SDC4 juxtamembrane and middle regions]",6,6,7,,12,8,14,0,2,1,26,9,47,2,4,61,19,"Aggregation (inhibition effects of syndecan-derived peptides) (TRAP-activated platelets; peptide 20 μM, TRAP 4 μM, mean): 19"

# — publication PMC6349357, “Computational and experimental analysis of bioactive peptide linear motifs in the integrin adhesome” (PLoS ONE, 2019)
